According to patent US8338622B2, “Heterocyclic compound” (Takeda Pharmaceutical Company Limited, priority 2008, dated 2012):

Experiments:
[1] = target: T1, human RBP4 (Homo sapiens, UniProt P02753); assay: Binding assay by Retinol-RBP4-TTR ELISA (human type ELISA); conditions: retinol 0.5 μM, read-out: human RBP4 binding inhibitory activity (IC50 nM)
T1 construct: the culture supernatant containing secreted/expressed hRBP4-His was recovered; His tag (His6, read from the HISENU oligo); made in house; host or cells: FreeStyle293 expression system (Invitrogen), secreted into the culture supernatant
Method: The action of the compound of the present invention to inhibit the binding between RBP4, and retinol and TTR was evaluated using the Retinol-RBP4-TTR ELISA (human type ELISA) system shown below.
The binding assay was performed by an ELISA system (Retinol-RBP4-TTR ELISA) for detecting retinol-RBP4-TTR conjugate by streptavidin-biotin reaction.
His-tagged human RBP4 used was prepared in the above-mentioned 1C.
Biotinylated human TTR used was prepared in the above-mentioned 1E.
Streptavidin (20 μl) (10 μg/ml Streptavidin type II (Wako Pure Chemical Industries, Ltd.), 10 mM Tris-HCl (pH 7.5), 10 mM NaCl) was added to a 384 well black maxisorp plate (Nunc), and the plate was subjected to centrifugation (1000 rpm, 1 min) and coated overnight at 4° C. The plate was washed twice with PBST (PBS, 0.05% Tween 20, 100 μl/well) and blocked with 25% Block Ace (Snow Brand Milk Products Co., Ltd., PBS, 100 μl/well). The plate was subjected to centrifugation (1000 rpm, 1 min) and incubated at room temperature for 4 hr or overnight at 4° C. The plate was washed twice with PBST (PBS, 0.05% Tween 20, 100 μl/well), and biotinylated human TTR (stock solution concentration 1.3 mg/ml) diluted 1000-fold with PBST was added at 20 μl/well. The plate was subjected to centrifugation (1000 rpm, 1 min) and stood still at room temperature for 1.5 hr or overnight at 4° C. The plate was washed 3 times with PEST (100 μl/well), and His-tagged human RBP4 (stock solution concentration 0.96 mg/ml) diluted 4000-fold with a reaction buffer (50 mM Tris-HCl, 150 mM NaCl, 0.005% Tween 20, 1 mM DTT, 0.1% BSA) was added at 10 μl/well. The dilution series (8 doses from 10 mM, 200-fold concentration) of the compound was prepared with DMSO, and 1 μl of each was added to a reaction buffer (200 μl) containing retinol (0.5 μM) (Sigma-Aldrich Co.). A reaction buffer (200 μl) containing retinol and added with DMSO was used as a positive control, and reaction buffer (200 μl) free of retinol and added with DMSO was used as a negative control. Mixed solutions of retinol and the compound were added to the plate at 15 μl/well. The mixture was stirred in a platemixer, subjected to centrifugation (1000 rpm, 1 min) and reacted at room temperature for 2 hr. A 35% Block Ace solution diluted with the reaction buffer was added at 10 μl/well, centrifuged (1000 rpm, 1 min) and reacted at room temperature for 30 min. The plate was washed 3 times with PBST (100 μl/well) and SuperSignal ELISA Femto Maximum Sensitivity Substrate reagent (PIERCE) was added at 30 μl/well, and the luminescence was measured by a platereader (Wallac).
The binding activity rate of the compound was determined by 100×(test compound value−negative control value)/(positive control value−negative control value). The binding inhibitory activity (IC50) was calculated from the binding activity rate at each compound concentration using a graph drawing software, Prism (GraphPad Software Inc.).

[2] = target: T2, RBP4 (Mus musculus, UniProt Q00724); assay: Blood RBP4 lowering action in C57BL/6J mouse, single oral administration; type: in vivo; conditions: plasma, mean±SD n=5; for RBP4 (% of initial/Control) 0 hr later: 0 hr value before administration, 50 mg/kg oral; for RBP4 (% of initial/Control) 4 hr later: 4 hr after 50 mg/kg oral; for RBP4 (% of initial/Control) 7 hr later: 7 hr after 50 mg/kg oral; for RBP4 (% of initial/Control) 24 hr later: 24 hr after 50 mg/kg oral
T2 construct: from tissue; host or cells: plasma of male C57BL/6J mice (Charles River Laboratories Japan Inc.)
Method: A blood RBP4 lowering action of the compound of the present invention was evaluated using C57BL/6J mouse.
Male 7- to 15-week-old C57BL/6J mice (Charles River Laboratories Japan Inc.) were individually bred for acclimation for 4-6 days under conditions with free access to CE-2 solid food (CLEA Japan, Inc.), and grouped based on the body weight (5 per group). The next day of grouping, blood samples were collected from the orbital venous plexus, and plasma was separated (0 hr value). Thereafter, the test compounds (Examples 1, 13, 15, 16, 17, 27 and 34) were orally administered at a dose of 50 mg/kg (solvent: 0.5% methylcellulose solution (10 mL/kg)). At 4, 7 and 24 hr after administration of the compounds, blood samples were collected from the orbital venous plexus, and plasma was separated. A 0.5% methylcellulose solution (10 mL/kg) was orally administered to the control group.
The RBP4 level of the collected plasma was measured by ELISA. RBP4 was quantified by the following steps using a rabbit, anti-mouse RBP4 polyclonal antibody (Hokudo Co., Ltd). A 96 well ELISA plate was coated with 50 μg/ml of the antibody (100 μL) and stood at 4° C. overnight. After blocking with BlockAce (DAINIPPON PHARMACEUTICAL CO., LTD.), mouse RBP4 or a sample (100 μL) was added and the plate was stood at room temperature for 2 hr. After washing with PBS-0.5% Tween 20, HRP-labeled anti-RBP4 antibody (prepared by labeling RBP4 polyclonal antibody (Hokudo Co., Ltd) with HRP (DOJINDO LABORATORIES)) was added by 100 μL, and the plate was stood at room temperature for 1 hr. After washing, TMB (Dako Cytomations) was added, and the mixture was stood at room temperature for 20 min to allow color development, and the reaction was quenched with 2N sulfuric acid. Thereafter, the absorbance at A450 nm was measured on a platereader. The amount of change from the initial value of each animal was determined as a relative value from the control group (% of initial/Control) at each time point. The results are shown in the following in mean±standard deviation (n=5).

[3] = tested on: Zucker fa/fa rats; assay: Hypoglycemic action in Zucker fa/fa rats (Experimental Example 4B); type: in vivo, rat; conditions: 10 mg/kg oral for 2 weeks, mean±SD n=5; for blood glucose level / RBP4: 24 hr after final administration; for glycated hemoglobin change (%): value after minus before administration; for RBP4: plasma
Method: A hypoglycemic action of the compound of the present invention was evaluated using Zucker fa/fa rats.
Male 25-week-old Zucker fa/fa rats (Takeda Pharmaceutical Company Limited) were acclimation bred in groups on CE-2 solid food (CLEA Japan, Inc.) up to 12 weeks of age, thereafter on high-fat diet D06110702 (LSG Corporation), with free access to food. At 25 weeks of age, the rats were grouped based on the body weight, blood glucose level, glycated hemoglobin level and blood RBP4 level (5 per group). Then, test compounds (Examples 16 and 17) were orally administered at a dose of 10 mg/kg (solvent: 0.5% methylcellulose solution (3 mL/kg)) for 2 weeks. At 24 hr from the final administration of the compounds, blood samples were collected from the tail vein, and plasma was separated. Using the collected plasma, (1) RBP4 concentration, (2) glycated hemoglobin level and (3) blood glucose level were measured. (1) was quantified according to the protocol described in Experimental Example 3. (2) was measured using Tosoh Corporation automatic glycohamoglobin analyzer (HLC-723 GHbV A1c2.2 or HLC-723G7 GHbV A1c2.2), and (3) was measured using Hitachi full-automatic analyzer (7070 or 7080).
A 0.5% methylcellulose solution (3 ml/kg) was orally administered to the control group. The results are shown below in mean±standard deviation (n=5). In the following Table, glycated hemoglobin change is obtained by subtracting the value before administration from that after administration.

For O=C(O)CO[C@H]1CCN(c2cc(C(F)(F)F)cc(C(F)(F)F)c2)C1 [Example 16, ({(3S)-1-[3,5-bis(trifluoromethyl)phenyl]pyrrolidin-3-yl}oxy)acetic acid], the IC50 [1] was 28 nM, the “RBP4 (% of initial/Control) 0 hr later” value [2] was 100.0 ± 11.0 % of initial/Control and the “RBP4 (% of initial/Control) 4 hr later” value [2] was 39.5 ± 0.6 % of initial/Control. For the same compound, the “RBP4 (% of initial/Control) 7 hr later” value [2] was 39.6 ± 0.4 % of initial/Control, the “RBP4 (% of initial/Control) 24 hr later” value [2] was 37.5 ± 0.4 % of initial/Control and the “blood glucose level” value [3] was 275.9 ± 127.5 mg/dL. For the same compound, the “glycated hemoglobin change (%)” value [3] was −0.58 ± 0.59% and the “RBP4” value [3] was 5.7 ± 0.1 µg/mL.
For O=C(O)CO[C@@H]1CCN(c2cc(C(F)(F)F)cc(C(F)(F)F)c2)C1 [Example 17, ({(3R)-1-[3,5-bis(trifluoromethyl)phenyl]pyrrolidin-3-yl}oxy)acetic acid], the IC50 [1] was 20 nM, the “RBP4 (% of initial/Control) 0 hr later” value [2] was 100.0 ± 7.1 % of initial/Control and the “RBP4 (% of initial/Control) 4 hr later” value [2] was 42.2 ± 0.6 % of initial/Control. The “RBP4 (% of initial/Control) 7 hr later” value [2] was 40.5 ± 0.2 % of initial/Control, the “RBP4 (% of initial/Control) 24 hr later” value [2] was 38.6 ± 0.8 % of initial/Control and the “blood glucose level” value [3] was 255.4 ± 106.7 mg/dL. The “glycated hemoglobin change (%)” value [3] was −0.60 ± 0.39% and the “RBP4” value [3] was 6.0 ± 0.1 µg/mL.
